# Test results as given in patent publication US6465527B1, “Iodinated hydrocarbon pesticide” (priority 1999, dated 2002).
# “Also recorded” adds a separate entry of the source.
# Key:
# Format in all cases: in vivo
# Meloidogyne arenaria = assay: Greenhouse nematicide test, diiodinated C2-C8 hydrocarbons in infested field soil (Experiments 1 and 2)
# Heterodera glycines = assay: as above
# [1] = system: reniform nematode [Rotylenchulus reniformis]; assay: Greenhouse nematicide test in cotton field soil, covered and uncovered pots (Experiment 6, FIGS. 1-4)
# Text: FIGS. 2 and 3 illustrate the effectiveness of the diiodoethane and diiodopropane in eliminating the nematode (Rotylenchulus reniformis) from a soil sample. The “x” axis on the top row illustrates the quantity of iodinated hydrocarbon in milligrams per kilogram of soil. The next two rows below the “x” axis indicate the number of nematodes per 100 milliliters of soil, which is also indicated on the “y” axis. In FIG. 2, 1,2-diiodoethane was applied to the soil both in a covered state and an uncovered state. […] This is believed to be so because of the volatility of 1,2 diiodoethane, wherein the cover slows down the rate at which the compound evaporates into the atmosphere.
# In this experiment, the pesticidal and herbicidal properties of volatile, low molecular weight, iodinated hydrocarbons were investigated. The relative nematicidal efficacy of iodomethane [C1], 1,2-diiodoethane [C2], 1,3-diiodopropane [C3] and 1,4-diiodobutane [C4] was studied in greenhouse experiments with soil from a cotton field infested with the reniform nematode [Rotylenchulus reniformis]. The chemicals were obtained from Aldrich, Milwaukee, U.S.A. Emulsifiable concentrates of the compounds were prepared by dilution in acetone containing an emulsogen.
# For each chemical, an aqueous emulsion with 0.2% [w/w] of the compound was prepared and was applied to soil at rates of 2, 4, 6, 8, 10, and 12 mgs a.i./Kg soil. The treated soil was mixed and transferred to 1L capacity 10-cm diameter cylindrical pots. Pots with untreated soil [control] and with treated soil were placed on a greenhouse bench in a randomized complete block design. Each treatment was represented by 14 replications [pots], one half of which were left uncovered, and the other 7 were covered with polyethylene plastic bags [approx. 1 mil thickness] retained with a rubber around the pots. Soil samples for nematological analysis [salad bowl incubation technique] were collected 7-10 days after application of the materials. […] In covered pots, applications of the material were particularly effective resulting in 100% kill with the 10 and 12 mg rates. All dosages of C3 and C4 eliminated the nematode in covered pots. […] In a greenhouse experiment of similar design to the nematicide experiments, the C3 and C4 emulsions were applied at rates of 2-20 mgs a.i./Kg soil to a soil infested with crabgrass [Digitaria sanguinalis], purple nutsedge [Cyperus rotundus], Jimson weed [Datura stramonium] and a variety of other weed species. All pots were covered, and the number of weeds were counted 7, 14 and 30 days after application of the chemicals.
# 'Brim' soybean = assay: Soybean growth and root condition in treated soil (Experiment 5)
# Description: In this experiment, the nematotoxic properties of ethylene diiodide were compared to that of methyl iodide. The nematicidal efficacies of iodomethane [IM] and ethylene diiodide [EDI] were compared in a greenhouse experiment using field soil infested with Meloidogyne arenaria, Pratylenchus brachyurus, and Paratrichodorus christiei.
# Each compound was added to soil at rates of 100, 200, 300 and 400 mg s/kg of soil. The soil was potted and kept moist for two weeks when it was planted with ‘Brim’ soybean after taking samples for nematological analyses. After eight weeks of growth, the plants were removed from the pots and soil samples taken. Data was collected on weights of fresh roots and shoots, general appearance of roots [root condition index] and root gall formation by M. arenaria. All EDI rates eliminated M. arenaria juveniles [J2] and populations of the other nematodes in the preplant samples; IM reduced J2 numbers by 50-70%, eliminated P. christiei with the 400 mg rate, but had no effect on P. brachyurus. […] The general appearance of roots was improved by EDI at rates ≦300 mg, but MI had no effect on the variable. […] M. arenaria J2 populations in roots were reduced by 60-70% by MI treatments, but the compound had no effect on root populations of P. brachyurus. MI had no effect on J2 populations in the final soil samples, although it suppressed P. christiei, by 50-70%.
# [2] = all rates (2.5, 5.0, 7.5, 10 mg/Kg soil)
compound,measurement,setting,value
"ICCI [1,2-diiodoethane]",M. arenaria juvenile (J2) populations in preplant samples,Meloidogyne arenaria; [2],ineffective
same,M. arenaria J2 numbers in final soil samples,"Meloidogyne arenaria; final soil samples after soybean growth, rates 2.5-10 mg/kg soil",increased directly with C2 dosage
same,H. glycines J2 populations in preplant samples,Heterodera glycines; [2],ineffective
same,H. glycines J2 numbers in final soil samples,"Heterodera glycines; final soil samples after soybean growth, rates 2.5-10 mg/kg soil, listed as C2",either no change in H. glycines J2 numbers or in increased numbers; also recorded: either no change in Hg J2 numbers or in increased numbers
same,H. glycines J2 populations in preplant samples,Heterodera glycines; rates ≧5.0 mg,suppressed
same,Numbers of the nematode in soil in response to rates,[1]; 2-12 mgs a.i./Kg soil,declined linearly
same,Kill of the nematode,"[1]; covered pots, 10 and 12 mg rates",100%
same,Effectiveness covered versus uncovered at eliminating the nematodes (FIG. 2),[1]; covered state and uncovered state,covered samples were more effective
same,Phytotoxicity to soybean,'Brim' soybean; 400 mg,phytotoxic
same,General appearance of roots [root condition index],'Brim' soybean; rates ≦300 mg,improved
